“And” between values parts separate entries of the source, which are not always exact repeats. Equal entries are not always repeated.
Tests used:
male C57BL mice [1] = assay: In vivo stimulation of intestinal growth, 800 nmol/kg (Example 10); design: key to Small intestine-colon sensitivity index: (SI/Colon) of compound divided by (SI/Colon) of reference GLP-2; settings: 800 nmol/kg s.c. once daily for 3 days; for Colon: colon mass relative to BW, % vs. [Gly2]GLP-2; for SI (% vs. [Gly2]GLP-2: small intestine mass relative to BW, [Gly2]GLP-2 = 100%
Excerpt: Individual groups (n=6-10) of mice were given 800 nmol/kg of each compound, s.c, once daily for three consecutive days. For comparison purposes other groups of animals were given either an equimolar dose of [[…]]GLP-2 (ZP1559) or vehicle (phosphate buffered saline, pH 7.4) in the same dosing regimen Twenty-four hours after the last dose of compound had been given the mice were sacrificed and the small intestine (from the pylorus to the cecum) and the colon (intestine distal to cecum) was emptied and weighed. To correct for slight difference in body weight (BW), the organ mass of the small intestine (SI) and colon were expressed relative to BW. The non-selective reference compound [[…]]GLP-2 has been reported to stimulate gastrointestinal growth in both esophagus, stomach, small intestine and colon and to evaluate differences in growth pattern induced by compounds, the small intestine-colon sensitivity index of compound X was calculated as: […]

[2] = amino acid side-chain; defined by W. D. Stein 1967; cited from earlier work
male C57BL mice [3] = assay: In vivo stimulation of intestinal growth, 200 nmol/kg (Example 11); settings: for Sensitivity index Si/Colon: relative to 1559
Procedure: The ability of further compounds to selectively stimulate small intestinal mass, relative to colon mass was determined in male C57BL mice. A similar protocol was used to that described above in Example 10 except that 200 nmol/kg of each compound was administered per day. Thus, individual groups (n=6-10) of mice were given 200 nmol/kg of each compound, s.c, once daily for three consecutive days. Other groups of animals were given either an equimolar dose of [[…]]GLP-2 (reference compound) or vehicle (phosphate buffered saline, pH 7.4; negative controls) in the same dosing regimen. Twenty-four hours after the last dose of compound the mice were sacrificed and the stomach, small intestine and the colon emptied and weighed.

male C57BL mice [4] = assay: In vivo stimulation of stomach growth, 200 nmol/kg (Example 12)
Procedure: The effects of the test compounds according to the invention were determined based on the ability of the peptides to selectively increase stomach mass, relative to vehicle control. The ability of the present compounds (ZP2395, ZP2396, ZP2400, ZP2412, ZP2394 and ZP2401) to selectively stimulate stomach mass, relative to colon mass was determined in male C57BL mice. Individual groups (n=6-10) of mice were given 200 nmol/kg of each compound, s.c, once daily for three consecutive days. For comparison purposes other groups of animals were given either an equimolar dose of [[…]]GLP-2 or vehicle (phosphate buffered saline, pH 7.4) in the same dosing regimen. Twenty-four hours after the last dose of compound had been given the mice were sacrificed and the stomach and small intestine (from the pylorus to the ileocaecal junction) emptied and weighed. To correct for slight difference in body weight (BW), the organ mass of the stomach is presented relative to BW. […] To evaluate the differential growth pattern induced by ZP compounds, compared to [[…]]GLP-2, on the stomach, the stomach-colon sensitivity index of compound X was calculated as: (Stomach/Colon)x/Stomach/(Colon)[[…]]GLP-2% Compounds with a stomach/colon sensitivity greater than or equal to 1.05 were considered relatively selective for the stomach.

[5] = colon weight relative to body weight, relative to ZP1559
[6] = small intestine weight relative to body weight, relative to ZP1559
[7] = 200 nmol/kg s.c. once daily for 3 days
[8] = 200 nmol/kg s.c. once daily for 3 days, relative to 1559

| Molecule | Colon-BW, compared to 1559 in % (male C57BL mice [3]; [5]) [%] | SI-BW, compared to 1559 in % (male C57BL mice [3]; [6]) [%] | Sensitivity index Stomach/Co (male C57BL mice [4]; ratio Stomach-BW / Colon-BW) | Colon-BW, compared to 1559 in % (male C57BL mice [3]; [7]) [%] | Organ selectivity (FIG. 8, unselective compounds) (male C57BL mice [3]; [7]) | SI-BW, compared to 1559 in % (male C57BL mice [3]; [7]) [%] | Sensitivity index Si/Colon (male C57BL mice [3]; [7]) | Sto-BW, compared to 1559 in % (male C57BL mice [4]; [7]) [%] | Sensitivity index Stomach/Co (male C57BL mice [4]; [8]) | also measured |
| --- | --- | --- | --- | --- | --- | --- | --- | --- | --- | --- |
| H-[Gly2]hGLP-2-OH (H-HGDGSFSDEMNTILDNLAARDFINWLIQTKITD-OH) [[Gly2]GLP-2, GLP-2 with alanine in position 2 replaced with glycine, reference compound] |  |  |  |  |  |  |  |  |  | Small intestine-colon sensitivity index (male C57BL mice [1]; (SI/Colon)x/(SI/Colon)[Gly2]GLP-2): 1.00 ± 0.02; Colon (male C57BL mice [1]): 100 ± 2%; SI (% vs. [Gly2]GLP-2 (male C57BL mice [1]): 100 ± 1% |
| N[C@@H](CS)C(=O)O [Cys] |  |  |  |  |  |  |  |  |  | HBP for the individual amino acids [2]: 0 |
| CSCC[C@H](N)C(=O)O [Met] |  |  |  |  |  |  |  |  |  | HBP for the individual amino acids [2]: 0 |
| N[C@@H](Cc1c[nH]c2ccccc12)C(=O)O [Trp] |  |  |  |  |  |  |  |  |  | HBP for the individual amino acids [2]: 1 |
| H-HGEGSFSSELSTILDALAARDFIAWLIATKITDK-OH [ZP2242] | 106.6 | 111.7 | 0.93 |  |  |  |  |  |  | Colon-BW, compared to 1559 in % (male C57BL mice [1]): 106.6%; Preferential stimulation of epithelial growth in the small intestine (summary) (male C57BL mice [1]): preferentially stimulating epithelial growth in the small intestine; SI-BW, compared to 1559 in % (male C57BL mice [1]): 111.7%; Sto-BW, compared to 1559 in % (male C57BL mice [1]): 99.6%; Sensitivity index Si/Colon (male C57BL mice [1]; relative to 1559): 1.05; Sensitivity index Stomach/Co (male C57BL mice [1]; relative to 1559): 0.93; Colon (male C57BL mice [1]): 107 ± 3%; SI (% vs. [Gly2]GLP-2 (male C57BL mice [1]): 111 ± 2%; Sensitivity index Si/Co (male C57BL mice [3]; ratio SI-BW / Colon-BW): 1.05; Stomach-BW, compared to 1559 in % (male C57BL mice [4]; stomach weight relative to body weight, relative to ZP1559): 99.6% |
| H-HGEGSFSDELLTILELLAALDFILWLILTKITDKKKKKK-NH2 [ZP2424] |  |  |  | 98 | unselective for the small intestine, colon or stomach | 86 | 0.88 | 91 | 0.93 |  |
| H-HGEGSFSDELETILEELAAEDFIEWLIETKITDKKKKKK-NH2 [ZP2378] |  |  |  | 97 | unselective for the small intestine, colon or stomach | 91 | 0.94 | 94 | 0.97 |  |
| H-HGEGSFSDELATILESLAAADFIAWLIATKITDKKKKKK-NH2 [ZP2415] |  |  |  | 106 | unselective for the small intestine, colon or stomach | 106 | 1.00 | 100 | 0.94 |  |
| H-HGEGSFSDELLTILELLAAADFIAWLIATKITDKKKKKK-NH2 [ZP2412] | 99 | 94 | 1.07 | 99 |  | 94 | 0.95 | 106 | 1.07 | Preferential stimulation of epithelial growth in the stomach (summary) (male C57BL mice [4]; [7]): preferentially stimulating epithelial growth in the stomach; Selectivity for stomach mass relative to colon mass (FIG. 7) (male C57BL mice [4]; [7]): selectively increase stomach mass, relative to colon mass |
| H-HGEGSFSDELSTILESLAASDFISWLISTKITDKKKKKK-NH2 [ZP2380] | 102 | 108 | 0.96 | 102 |  | 108 | 1.06 | 98 | 0.96 | Preferential stimulation of epithelial growth in the small intestine (summary) (male C57BL mice [3]; [7]): preferentially stimulating epithelial growth in the small intestine; Selectivity for small intestinal mass relative to colon mass (FIG. 6) (male C57BL mice [3]; [7]): selectively increase small intestinal mass, relative to colon mass |
| H-HGEGSFSDELSTILESLAAADFIAWLIATKITDKKKKKK-NH2 [ZP2403] |  |  |  | 109 | unselective for the small intestine, colon or stomach | 110 | 1.01 | 107 | 0.98 |  |
| H-HGEGSFSDELATILEALAAADFISWLIATKITD-NH2 [ZP2418] | 100 | 117 | 0.91 | 100 |  | 117 | 1.17 | 91 | 0.91 | Preferential stimulation of epithelial growth in the small intestine (summary) (male C57BL mice [3]; [7]): preferentially stimulating epithelial growth in the small intestine; Selectivity for small intestinal mass relative to colon mass (FIG. 6) (male C57BL mice [3]; [7]): selectively increase small intestinal mass, relative to colon mass |
| H-HGEGSFSDELSTILEALAAADFIAWLIATKITDKKKKKK-NH2 [ZP2404] |  |  |  | 115 | unselective for the small intestine, colon or stomach | 114 | 0.99 | 103 | 0.90 |  |
| H-HGEGSFSDELSTILEALAAADFIAWLIATKITD-NH2 [ZP2420] | 101 | 112 | 0.89 | 101 |  | 112 | 1.11 | 90 | 0.89 | Preferential stimulation of epithelial growth in the small intestine (summary) (male C57BL mice [3]; [7]): preferentially stimulating epithelial growth in the small intestine; Selectivity for small intestinal mass relative to colon mass (FIG. 6) (male C57BL mice [3]; [7]): selectively increase small intestinal mass, relative to colon mass |
| H-HGEGSFSDELATILEALAAADFISWLIATKITDKKKKKK-NH2 [ZP2411] | 111 | 117 | 0.95 | 111 |  | 117 | 1.05 | 106 | 0.95 | Preferential stimulation of epithelial growth in the small intestine (summary) (male C57BL mice [3]; [7]): preferentially stimulating epithelial growth in the small intestine; Selectivity for small intestinal mass relative to colon mass (FIG. 6) (male C57BL mice [3]; [7]): selectively increase small intestinal mass, relative to colon mass |
| H-HGEGSFSDELKTILESLAAADFIEWLIQTKITDKKKKKK-NH2 [ZP2379] |  |  |  | 97 | unselective for the small intestine, colon or stomach | 88 | 0.91 | 99 | 1.02 |  |
| H-HGEGSFSDELATILESLAAADFISWLIATKITDKKKKKK-NH2 [ZP2413] |  |  |  | 117 | unselective for the small intestine, colon or stomach | 116 | 0.99 | 108 | 0.92 |  |
| H-HGEGSFSDELFTILEFLAASDFISWLISTKITDKKKKKK-NH2 [ZP2396] | 102 | 104 | 1.16 and 1.15 | 102 |  | 104 | 1.02 | 117 | 1.15 | Preferential stimulation of epithelial growth in the stomach (summary) (male C57BL mice [4]; [7]): preferentially stimulating epithelial growth in the stomach; Selectivity for stomach mass relative to colon mass (FIG. 7) (male C57BL mice [4]; [7]): selectively increase stomach mass, relative to colon mass |
| H-HGEGSFSDELNTILESLAASDFISWLISTKITDKKKKKK-NH2 [ZP2382] |  |  |  | 106 | unselective for the small intestine, colon or stomach | 103 | 0.97 | 101 | 0.95 |  |

From patent US10092648B2, “Selective glucagon-like-peptide-2 (GLP-2) analogues” (Zealand Pharma A/S, priority 2006, dated 2018)
